Source: patent US12258327B2, “5-membered heteroaryl-containing aminopyridine compounds as EGFR inhibitors” (YUHAN CORPORATION, priority 2021, dated 2025)
Where two headings read alike, the source gives them in different places.

Columns and labels:
EGFR L858R/T790M/C797S = EGFR L858R/T790M/C797S (Homo sapiens, UniProt P00533, C797S/L858R/T790M); test: Biochemical EGFR kinase assay (Lance Ultra TR-FRET), triple mutant L858R/T790M/C797S
Method in brief: (§1)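 Step 1: compound in kinase buffer, 0.003–10 μM. Step 2: kinase reaction 1 h at room temperature. Step 4: TR-FRET read at 615/665 nm; IC50 calculated.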

EGFR del19/T790M/C797S = EGFR del19/T790M/C797S (Homo sapiens, UniProt P00533, C797S/DEL746-750/T790M); test: Biochemical EGFR kinase assay (Lance Ultra TR-FRET), triple mutant del19/T790M/C797S
Method in brief: as §1

EGFR del19/C797S = EGFR del19/C797S (Homo sapiens, UniProt P00533, C797S/DEL746-750); test: Biochemical EGFR kinase assay (Lance Ultra TR-FRET), double mutant del19/C797S
Method in brief: as §1

EGFR L858R/C797S = EGFR L858R/C797S (Homo sapiens, UniProt P00533, C797S/L858R); test: Biochemical EGFR kinase assay (Lance Ultra TR-FRET), double mutant L858R/C797S
Method in brief: as §1

EGFR wildtype (WT) = EGFR wildtype (WT) (Homo sapiens, UniProt P00533); test: Biochemical EGFR kinase assay (Lance Ultra TR-FRET), wildtype
Method in brief: as §1

[1] = Km ATP, read-out: IC50 L858R/T790M/C797S (nM) Km ATP
[2] = Km ATP, read-out: IC50 del19/T790M/C797S (nM) Km ATP
[3] = Km ATP, read-out: IC50 del19/C797S (nM) Km ATP
[4] = Km ATP, read-out: IC50 L858R/C797S (nM) Km ATP
[5] = Km ATP, read-out: IC50 WT (nM) Km ATP
[6] = IC50 L858R/T790M/C797S (nM) 100 μM ATP, 100 μM ATP
[7] = IC50 del19/T790M/C797S (nM) 100 μM ATP, 100 μM ATP
[8] = IC50 del19/C797S (nM) 100 μM ATP, 100 μM ATP
[9] = IC50 L858R/C797S (nM) 100 μM ATP, 100 μM ATP
[10] = IC50 WT (nM) 100 μM ATP, 100 μM ATP

EGFR del19/T790M/C797S, sequence (P00533 with tags, fused parts or gaps DEL746-750/T790M/C797S): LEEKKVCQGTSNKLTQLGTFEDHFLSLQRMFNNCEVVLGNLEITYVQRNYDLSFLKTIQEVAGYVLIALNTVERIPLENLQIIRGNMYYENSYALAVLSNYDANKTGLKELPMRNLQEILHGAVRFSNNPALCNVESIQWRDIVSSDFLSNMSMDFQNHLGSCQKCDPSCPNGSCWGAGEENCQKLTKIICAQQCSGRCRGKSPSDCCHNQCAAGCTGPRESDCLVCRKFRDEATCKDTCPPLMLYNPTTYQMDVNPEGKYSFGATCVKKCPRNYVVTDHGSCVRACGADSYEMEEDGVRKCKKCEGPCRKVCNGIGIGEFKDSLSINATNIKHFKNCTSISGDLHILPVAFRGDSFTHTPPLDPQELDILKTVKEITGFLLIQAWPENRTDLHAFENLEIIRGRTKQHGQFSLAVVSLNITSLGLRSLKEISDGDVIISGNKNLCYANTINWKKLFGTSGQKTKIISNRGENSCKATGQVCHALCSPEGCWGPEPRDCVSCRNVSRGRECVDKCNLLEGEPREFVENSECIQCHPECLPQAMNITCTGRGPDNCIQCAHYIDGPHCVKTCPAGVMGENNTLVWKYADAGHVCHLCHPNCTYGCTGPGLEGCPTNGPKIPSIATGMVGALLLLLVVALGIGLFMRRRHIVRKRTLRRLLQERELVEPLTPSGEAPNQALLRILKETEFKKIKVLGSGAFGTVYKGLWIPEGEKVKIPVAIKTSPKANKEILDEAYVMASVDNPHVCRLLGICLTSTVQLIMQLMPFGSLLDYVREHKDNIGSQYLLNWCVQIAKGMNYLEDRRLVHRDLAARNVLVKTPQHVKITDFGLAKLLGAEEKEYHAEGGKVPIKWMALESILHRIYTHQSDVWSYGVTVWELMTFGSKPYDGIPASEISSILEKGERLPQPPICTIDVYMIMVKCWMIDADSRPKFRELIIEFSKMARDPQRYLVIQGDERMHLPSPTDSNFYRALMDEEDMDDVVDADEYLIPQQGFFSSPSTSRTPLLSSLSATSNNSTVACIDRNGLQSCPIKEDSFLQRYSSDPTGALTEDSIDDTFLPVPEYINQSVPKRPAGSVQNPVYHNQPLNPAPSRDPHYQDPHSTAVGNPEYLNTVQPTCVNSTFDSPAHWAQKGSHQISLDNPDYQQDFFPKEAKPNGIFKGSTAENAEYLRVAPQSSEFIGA
EGFR L858R/T790M/C797S, sequence (P00533 25-1210 T790M/C797S/L858R): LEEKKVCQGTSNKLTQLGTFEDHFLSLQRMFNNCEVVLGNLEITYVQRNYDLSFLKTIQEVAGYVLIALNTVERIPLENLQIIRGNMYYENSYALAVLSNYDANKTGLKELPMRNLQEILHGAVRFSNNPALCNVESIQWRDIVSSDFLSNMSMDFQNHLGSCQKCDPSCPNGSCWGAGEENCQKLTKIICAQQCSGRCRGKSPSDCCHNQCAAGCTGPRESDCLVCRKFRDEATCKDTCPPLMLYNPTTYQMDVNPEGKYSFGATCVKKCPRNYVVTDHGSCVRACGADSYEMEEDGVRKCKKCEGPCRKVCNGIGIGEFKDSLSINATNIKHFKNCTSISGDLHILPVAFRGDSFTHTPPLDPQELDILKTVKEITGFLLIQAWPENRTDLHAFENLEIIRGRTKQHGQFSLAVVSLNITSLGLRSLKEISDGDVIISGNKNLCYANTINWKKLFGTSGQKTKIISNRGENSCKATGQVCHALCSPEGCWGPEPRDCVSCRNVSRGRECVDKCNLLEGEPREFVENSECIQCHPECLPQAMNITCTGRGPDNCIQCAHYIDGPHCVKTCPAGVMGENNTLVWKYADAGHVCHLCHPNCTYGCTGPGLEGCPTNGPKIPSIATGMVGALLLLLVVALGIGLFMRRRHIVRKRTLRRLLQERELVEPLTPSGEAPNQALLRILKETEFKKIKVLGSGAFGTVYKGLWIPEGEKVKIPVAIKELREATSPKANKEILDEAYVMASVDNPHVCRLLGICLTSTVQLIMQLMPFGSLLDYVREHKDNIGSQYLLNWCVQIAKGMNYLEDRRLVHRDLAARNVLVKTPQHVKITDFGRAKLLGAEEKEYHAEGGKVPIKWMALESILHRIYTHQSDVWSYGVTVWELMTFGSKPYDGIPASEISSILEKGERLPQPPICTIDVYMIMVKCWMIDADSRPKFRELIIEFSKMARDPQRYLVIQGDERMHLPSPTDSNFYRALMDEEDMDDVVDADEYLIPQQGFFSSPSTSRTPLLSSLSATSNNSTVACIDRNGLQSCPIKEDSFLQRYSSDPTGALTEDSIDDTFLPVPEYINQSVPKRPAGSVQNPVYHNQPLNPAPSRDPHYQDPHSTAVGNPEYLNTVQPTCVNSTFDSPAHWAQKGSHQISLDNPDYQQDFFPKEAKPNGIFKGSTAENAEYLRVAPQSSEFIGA
EGFR del19/C797S, sequence (P00533 with tags, fused parts or gaps DEL746-750/C797S): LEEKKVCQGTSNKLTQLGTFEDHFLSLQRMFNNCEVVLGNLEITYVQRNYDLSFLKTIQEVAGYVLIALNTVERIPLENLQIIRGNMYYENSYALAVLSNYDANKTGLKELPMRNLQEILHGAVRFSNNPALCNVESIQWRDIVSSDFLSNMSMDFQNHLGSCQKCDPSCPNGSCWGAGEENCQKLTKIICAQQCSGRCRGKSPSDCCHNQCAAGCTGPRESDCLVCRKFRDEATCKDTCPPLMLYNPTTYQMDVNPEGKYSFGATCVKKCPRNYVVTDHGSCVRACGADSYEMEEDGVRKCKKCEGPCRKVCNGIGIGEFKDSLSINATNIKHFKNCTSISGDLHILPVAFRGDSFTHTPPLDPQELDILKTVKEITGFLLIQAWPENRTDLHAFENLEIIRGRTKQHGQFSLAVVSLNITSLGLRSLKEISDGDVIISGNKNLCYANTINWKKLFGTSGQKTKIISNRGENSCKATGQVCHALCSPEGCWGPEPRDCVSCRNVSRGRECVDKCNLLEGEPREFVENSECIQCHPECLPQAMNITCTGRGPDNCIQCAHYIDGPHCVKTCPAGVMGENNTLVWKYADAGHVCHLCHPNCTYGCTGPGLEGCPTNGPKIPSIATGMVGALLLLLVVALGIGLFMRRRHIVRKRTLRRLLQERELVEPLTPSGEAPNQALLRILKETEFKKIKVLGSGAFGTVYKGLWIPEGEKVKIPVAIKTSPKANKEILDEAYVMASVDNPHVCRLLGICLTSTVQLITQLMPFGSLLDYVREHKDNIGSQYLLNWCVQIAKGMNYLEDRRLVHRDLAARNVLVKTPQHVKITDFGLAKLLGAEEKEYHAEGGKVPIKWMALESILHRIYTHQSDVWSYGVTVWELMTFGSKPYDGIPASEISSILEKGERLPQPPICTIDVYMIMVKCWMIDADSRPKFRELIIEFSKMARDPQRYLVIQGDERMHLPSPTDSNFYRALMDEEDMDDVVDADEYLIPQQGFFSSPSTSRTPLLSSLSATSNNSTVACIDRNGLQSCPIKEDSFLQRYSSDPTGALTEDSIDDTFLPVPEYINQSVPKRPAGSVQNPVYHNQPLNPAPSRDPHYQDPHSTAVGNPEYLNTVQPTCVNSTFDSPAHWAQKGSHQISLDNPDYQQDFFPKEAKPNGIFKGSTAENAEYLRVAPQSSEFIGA
EGFR wildtype (WT), sequence (P00533 25-1210): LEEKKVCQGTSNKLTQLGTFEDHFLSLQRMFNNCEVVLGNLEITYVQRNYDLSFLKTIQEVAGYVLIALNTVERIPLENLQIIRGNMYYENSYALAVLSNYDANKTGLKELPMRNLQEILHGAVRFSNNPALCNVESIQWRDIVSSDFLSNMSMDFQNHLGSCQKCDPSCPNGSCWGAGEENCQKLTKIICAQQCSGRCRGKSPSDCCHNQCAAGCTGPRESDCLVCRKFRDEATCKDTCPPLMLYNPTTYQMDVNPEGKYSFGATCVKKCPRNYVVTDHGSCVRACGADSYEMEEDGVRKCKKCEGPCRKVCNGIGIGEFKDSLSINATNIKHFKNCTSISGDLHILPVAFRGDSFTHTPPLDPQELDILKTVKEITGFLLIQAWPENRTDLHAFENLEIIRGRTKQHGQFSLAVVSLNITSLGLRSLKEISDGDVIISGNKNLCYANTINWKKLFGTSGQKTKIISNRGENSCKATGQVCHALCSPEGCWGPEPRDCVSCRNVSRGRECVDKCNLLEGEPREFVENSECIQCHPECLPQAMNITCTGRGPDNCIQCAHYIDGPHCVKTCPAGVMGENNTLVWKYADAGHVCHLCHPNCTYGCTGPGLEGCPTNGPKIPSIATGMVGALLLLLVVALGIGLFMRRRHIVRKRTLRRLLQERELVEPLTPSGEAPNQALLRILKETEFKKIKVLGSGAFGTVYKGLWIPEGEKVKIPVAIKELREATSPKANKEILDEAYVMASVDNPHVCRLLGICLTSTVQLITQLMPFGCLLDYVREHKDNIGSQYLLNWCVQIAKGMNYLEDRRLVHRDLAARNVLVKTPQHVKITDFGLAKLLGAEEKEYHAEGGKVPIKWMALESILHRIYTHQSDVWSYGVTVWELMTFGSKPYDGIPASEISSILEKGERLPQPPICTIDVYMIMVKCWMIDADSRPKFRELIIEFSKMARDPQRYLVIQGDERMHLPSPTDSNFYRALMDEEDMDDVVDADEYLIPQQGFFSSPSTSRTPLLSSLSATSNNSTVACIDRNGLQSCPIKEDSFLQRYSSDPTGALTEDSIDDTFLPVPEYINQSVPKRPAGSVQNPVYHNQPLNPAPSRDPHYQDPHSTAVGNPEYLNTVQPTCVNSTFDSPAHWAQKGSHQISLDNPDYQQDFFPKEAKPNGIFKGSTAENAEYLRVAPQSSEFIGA

## C[C@]1(O)CC[C@@H](Nc2cc(Nc3ccnc(-c4cnn(CC(F)F)c4)n3)ncc2-n2ccc(C(F)F)n2)CC1 [Example 177, (1s,4s)-4-((2-((2-(1-(2,2-Difluoroethyl)-1H-pyrazol-4-yl)pyrimidin-4-yl)amino)-5-(3-(difluoromethyl)-1H-pyrazol-1-yl)pyridin-4-yl)amino)-1-methylcyclohexan-1-ol]
EGFR L858R/T790M/C797S; [1]
  IC50: 0.8 nM
EGFR del19/T790M/C797S; [2]
  IC50: 0.8 nM
EGFR del19/C797S; [3]
  IC50: 1320 nM
EGFR L858R/C797S; [4]
  IC50: 36.6 nM
EGFR wildtype (WT); [5]
  IC50: 4620 nM

## C[C@]1(O)CC[C@@H](Nc2cc(Nc3ccnc(-c4cnn(S(=O)(=O)C5CC5)c4)n3)ncc2-c2ccn(C3COC3)n2)CC1 [Example 292, (1s,4s)-4-((2-((2-(1-(Cyclopropylsulfonyl)-1H-pyrazol-4-yl)pyrimidin-4-yl)amino)-5-(1-(oxetan-3-yl)-1H-pyrazol-3-yl)pyridin-4-yl)amino)-1-methylcyclohexan-1-ol]
EGFR L858R/T790M/C797S; [6]
  IC50: 0.2 nM
EGFR L858R/T790M/C797S; [1]
  IC50: 0.1 nM
EGFR del19/T790M/C797S; [7]
  IC50: 0.2 nM
EGFR del19/T790M/C797S; [2]
  IC50: 0.5 nM
EGFR del19/C797S; [8]
  IC50: 0.8 nM
EGFR del19/C797S; [3]
  IC50: 0.4 nM
EGFR L858R/C797S; [9]
  IC50: 6.6 nM
EGFR L858R/C797S; [4]
  IC50: 0.1 nM
EGFR wildtype (WT); [10]
  IC50: 6970 nM

## CN(C)C[C@H]1CC[C@@H](Nc2cc(Nc3ccnc(-c4cnn(S(=O)(=O)C5CC5)c4)n3)ncc2-c2ccn(CC(F)(F)F)n2)CC1 [Example 266, N^2-(2-(1-(Cyclopropylsulfonyl)-1H-pyrazol-4-yl)pyrimidin-4-yl)-N^4-((1s,4s)-4-((dimethylamino)methyl)cyclohexyl)-5-(1-(2,2,2-trifluoroethyl)-1H-pyrazol-3-yl)pyridine-2,4-diamine]
EGFR L858R/T790M/C797S; [6]
  IC50: 0.1 nM
EGFR del19/T790M/C797S; [7]
  IC50: 0.1 nM
EGFR del19/C797S; [8]
  IC50: 0.3 nM
EGFR L858R/C797S; [9]
  IC50: 0.9 nM
EGFR wildtype (WT); [10]
  IC50: 206 nM

## CN(C)S(=O)(=O)n1cc(-c2nccc(Nc3cc(N[C@H]4CC[C@@](C)(O)CC4)c(-c4ccn(C(F)F)n4)cn3)n2)cn1 [Example 317, 4-(4-((5-(1-(Difluoromethyl)-1H-pyrazol-3-yl)-4-(((1s,4s)-4-hydroxy-4-methylcyclohexyl)amino)pyridin-2-yl)amino)pyrimidin-2-yl)-N,N-dimethyl-1H-pyrazole-1-sulfonamide]
EGFR L858R/T790M/C797S; [6]
  IC50: 0.2 nM
EGFR L858R/T790M/C797S; [1]
  IC50: 0.1 nM
EGFR del19/T790M/C797S; [7]
  IC50: 0.3 nM
EGFR del19/T790M/C797S; [2]
  IC50: 0.5 nM
EGFR del19/C797S; [8]
  IC50: 16.8 nM
EGFR del19/C797S; [3]
  IC50: 5.5 nM
EGFR L858R/C797S; [9]
  IC50: 53.6 nM
EGFR L858R/C797S; [4]
  IC50: 2.2 nM
EGFR wildtype (WT); [10]
  IC50: > 10000 nM
EGFR wildtype (WT); [5]
  IC50: 12.1 nM

## O=S(=O)(C1CC1)n1cc(-c2nccc(Nc3cc(NCC4CCC(O)C4)c(-c4ccn(C(F)F)n4)cn3)n2)cn1 (stereo not shown) [Example 33, 3-(((2-((2-(1-(Cyclopropylsulfonyl)-1H-pyrazol-4-yl)pyrimidin-4-yl)amino)-5-(1-(difluoromethyl)-1H-pyrazol-3-yl)pyridin-4-yl)amino)methyl)cyclopentan-1-ol]
EGFR L858R/T790M/C797S; [6]
  IC50: 1.4 nM
EGFR L858R/T790M/C797S; [1]
  IC50: 0.5 nM
EGFR del19/T790M/C797S; [7]
  IC50: 1 nM
EGFR del19/T790M/C797S; [2]
  IC50: 0.5 nM
EGFR del19/C797S; [3]
  IC50: 0.5 nM
EGFR L858R/C797S; [9]
  IC50: 13.5 nM
EGFR L858R/C797S; [4]
  IC50: 0.7 nM
EGFR wildtype (WT); [10]
  IC50: > 10000 nM
EGFR wildtype (WT); [5]
  IC50: 7 nM

## O=S(=O)(C1CC1)n1cc(-c2nccc(Nc3cc(NC4CCC(CCO)CC4)c(-c4ccn(C(F)F)n4)cn3)n2)cn1 (stereo not shown) [Example 133, 2-((1r,4r)-4-((2-((2-(1-(Cyclopropylsulfonyl)-1H-pyrazol-4-yl)pyrimidin-4-yl)amino)-5-(1-(difluoromethyl)-1H-pyrazol-3-yl)pyridin-4-yl)amino)cyclohexyl)ethan-1-ol]
EGFR L858R/T790M/C797S; [6]
  IC50: 3.2 nM
EGFR L858R/T790M/C797S; [1]
  IC50: 0.1 nM
EGFR del19/T790M/C797S; [7]
  IC50: 0.5 nM
EGFR del19/T790M/C797S; [2]
  IC50: 0.3 nM
EGFR del19/C797S; [8]
  IC50: 1.4 nM
EGFR del19/C797S; [3]
  IC50: 0.3 nM
EGFR L858R/C797S; [9]
  IC50: 99.3 nM
EGFR L858R/C797S; [4]
  IC50: 1 nM
EGFR wildtype (WT); [10]
  IC50: > 10000 nM
EGFR wildtype (WT); [5]
  IC50: 92.1 nM

## CS(=O)(=O)c1ccccc1Nc1nccc(Nc2cc(N[C@H]3CC[C@@](C)(O)CC3)c(-c3ccn(C(F)F)n3)cn2)n1 [Example 313, (1s,4s)-4-((5-(1-(Difluoromethyl)-1H-pyrazol-3-yl)-2-((2-((2-(methylsulfonyl)phenyl)amino)pyrimidin-4-yl)amino)pyridin-4-yl)amino)-1-methylcyclohexan-1-ol]
EGFR L858R/T790M/C797S; [6]
  IC50: 12.6 nM
EGFR del19/T790M/C797S; [7]
  IC50: 2.1 nM
EGFR del19/C797S; [8]
  IC50: 74.5 nM
EGFR del19/C797S; [3]
  IC50: 39.9 nM
EGFR L858R/C797S; [9]
  IC50: 627 nM
EGFR L858R/C797S; [4]
  IC50: 146 nM
EGFR wildtype (WT); [10]
  IC50: > 10000 nM
EGFR wildtype (WT); [5]
  IC50: 1610 nM

## COc1cc(-c2nccc(Nc3cc(N[C@H]4CC[C@@](C)(O)CC4)c(-c4ccn(C(F)F)n4)cn3)n2)ccn1 [Example 169, (1s,4s)-4-((5-(1-(Difluoromethyl)-1H-pyrazol-3-yl)-2-((2-(2-methoxypyridin-4-yl)pyrimidin-4-yl)amino)pyridin-4-yl)amino)-1-methylcyclohexan-1-ol]
EGFR L858R/T790M/C797S; [1]
  IC50: 15.5 nM
EGFR del19/T790M/C797S; [2]
  IC50: 20.1 nM
EGFR del19/C797S; [3]
  IC50: 110 nM
EGFR L858R/C797S; [4]
  IC50: 43.4 nM
EGFR wildtype (WT); [5]
  IC50: 325 nM
